According to the supplement of paper PMC10307832:

Experiments:
Assay in all cases: relative viability (nuclei count vs DMSO), 5 days (fraction); higher = more cells survive
Avagacestat + Tozasertib = compound: NC(=O)[C@@H](CCC(F)(F)F)N(Cc1ccc(-c2ncon2)cc1F)S(=O)(=O)c1ccc(Cl)cc1 [Avagacestat] + Cc1cc(Nc2cc(N3CCN(C)CC3)nc(Sc3ccc(NC(=O)C4CC4)cc3)n2)n[nH]1 [Tozasertib] (partner 0.1 µM)
How it was run: (§1)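 The day after seeding in 1536-well plates, lung cancer cell lines were treated by pin tool with a single drug, or with a fixed anchor-drug dose together with five library-drug doses (not always all listed) in √10 steps. After 5 days, a combined fix-and-stain solution (final 0.05% Triton X-100, 1% formaldehyde, 1 ug/ml Hoechst) was added. Nuclei counted on 4× images gave relative viability as treated counts over vehicle counts, reported as the median of duplicate plates.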

Avagacestat + Dasatinib = compound: NC(=O)[C@@H](CCC(F)(F)F)N(Cc1ccc(-c2ncon2)cc1F)S(=O)(=O)c1ccc(Cl)cc1 [Avagacestat] + Cc1nc(Nc2ncc(C(=O)Nc3c(C)cccc3Cl)s2)cc(N2CCN(CCO)CC2)n1 [Dasatinib] (partner 0.075 µM)
How it was run: as §1

Avagacestat + Foretinib = compound: NC(=O)[C@@H](CCC(F)(F)F)N(Cc1ccc(-c2ncon2)cc1F)S(=O)(=O)c1ccc(Cl)cc1 [Avagacestat] + COc1cc2c(Oc3ccc(NC(=O)C4(C(=O)Nc5ccc(F)cc5)CC4)cc3F)ccnc2cc1OCCCN1CCOCC1 [Foretinib] (partner 0.25 µM)
How it was run: as §1

Avagacestat + Phenformin = compound: NC(=O)[C@@H](CCC(F)(F)F)N(Cc1ccc(-c2ncon2)cc1F)S(=O)(=O)c1ccc(Cl)cc1 [Avagacestat] + N=C(N)NC(=N)NCCc1ccccc1 [Phenformin] (partner 250 µM)
How it was run: as §1

Avagacestat + OSI-027 = compound: NC(=O)[C@@H](CCC(F)(F)F)N(Cc1ccc(-c2ncon2)cc1F)S(=O)(=O)c1ccc(Cl)cc1 [Avagacestat] + COc1cccc2cc(-c3nc([C@H]4CC[C@H](C(=O)O)CC4)n4ncnc(N)c34)[nH]c12 [OSI-027] (partner 0.5 µM)
How it was run: as §1

Avagacestat + Luminespib = compound: NC(=O)[C@@H](CCC(F)(F)F)N(Cc1ccc(-c2ncon2)cc1F)S(=O)(=O)c1ccc(Cl)cc1 [Avagacestat] + CCNC(=O)c1noc(-c2cc(C(C)C)c(O)cc2O)c1-c1ccc(CN2CCOCC2)cc1 [Luminespib] (partner 0.01 µM)
How it was run: as §1

Avagacestat = compound: NC(=O)[C@@H](CCC(F)(F)F)N(Cc1ccc(-c2ncon2)cc1F)S(=O)(=O)c1ccc(Cl)cc1 [Avagacestat]
How it was run: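 Vehicle-anchored 1536-well plates of lung cancer cell lines, held overnight at 37 °C, were pinned with five library-drug doses (not always all listed) spaced by √10. No medium change followed over the next 5 days, after which the cells were fixed, permeabilised and Hoechst-stained together and imaged at 4×. Nuclei were counted with MetaXpress, and viability is treated-well nuclei over vehicle-well nuclei, taken as a median across plates. Plates passed with control CV below 25% and at least one doubling.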

## NCI-H1623
Avagacestat + Tozasertib; first compound 0.08 µM
  relative viability: 0.448
Avagacestat + Tozasertib; first compound 0.253 µM
  relative viability: 0.446
Avagacestat + Tozasertib; first compound 0.8 µM
  relative viability: 0.456
Avagacestat + Tozasertib; first compound 2.53 µM
  relative viability: 0.46
Avagacestat + Tozasertib; first compound 8 µM
  relative viability: 0.445
Avagacestat + Dasatinib; first compound 0.08 µM
  relative viability: 0.525
Avagacestat + Dasatinib; first compound 0.253 µM
  relative viability: 0.567
Avagacestat + Dasatinib; first compound 0.8 µM
  relative viability: 0.575
Avagacestat + Dasatinib; first compound 2.53 µM
  relative viability: 0.511
Avagacestat + Dasatinib; first compound 8 µM
  relative viability: 0.577
Avagacestat + Foretinib; first compound 0.08 µM
  relative viability: 0.879
Avagacestat + Foretinib; first compound 0.253 µM
  relative viability: 0.95
Avagacestat + Foretinib; first compound 0.8 µM
  relative viability: 1.08
Avagacestat + Foretinib; first compound 2.53 µM
  relative viability: 0.813
Avagacestat + Foretinib; first compound 8 µM
  relative viability: 0.86
Avagacestat + Phenformin; first compound 0.08 µM
  relative viability: 0.576
Avagacestat + Phenformin; first compound 0.253 µM
  relative viability: 0.603
Avagacestat + Phenformin; first compound 0.8 µM
  relative viability: 0.614
Avagacestat + Phenformin; first compound 2.53 µM
  relative viability: 0.577
Avagacestat + Phenformin; first compound 8 µM
  relative viability: 0.63
Avagacestat + OSI-027; first compound 0.08 µM
  relative viability: 0.437
Avagacestat + OSI-027; first compound 0.253 µM
  relative viability: 0.454
Avagacestat + OSI-027; first compound 0.8 µM
  relative viability: 0.508
Avagacestat + OSI-027; first compound 2.53 µM
  relative viability: 0.424
Avagacestat + OSI-027; first compound 8 µM
  relative viability: 0.47
Avagacestat + Luminespib; first compound 0.08 µM
  relative viability: 0.491
Avagacestat + Luminespib; first compound 0.253 µM
  relative viability: 0.484
Avagacestat + Luminespib; first compound 0.8 µM
  relative viability: 0.913
Avagacestat + Luminespib; first compound 2.53 µM
  relative viability: 0.609
Avagacestat + Luminespib; first compound 8 µM
  relative viability: 0.475
Avagacestat; 0.08 µM
  relative viability: 1.02
Avagacestat; 0.253 µM
  relative viability: 0.935
Avagacestat; 0.8 µM
  relative viability: 1.1
Avagacestat; 2.53 µM
  relative viability: 0.921
Avagacestat; 8 µM
  relative viability: 1
